What was measured:
Type in all cases: cell-based
[1] = tested on: Resistant Enterococcus faecium and faecalis; assay: MIC, standard broth micro-dilution assay, Resistant; settings: geometric mean of 4-6 isolates
Description: (§1) The antibacterial efficacy of the present compounds is illustrated by Table III. The minimal inhibitory concentrations (MICs) were determined using a standard broth micro-dilution assay.

[2] = tested on: Sensitive Enterococcus faecium and faecalis; assay: MIC, standard broth micro-dilution assay, Sensitive; settings: geometric mean of 4-6 isolates
Description: as §1

[3] = tested on: Staphylococcus aureus 446; assay: MIC, standard broth micro-dilution assay, SA 446
Description: as §1

[4] = tested on: Staphylococcus aureus 489; assay: MIC, standard broth micro-dilution assay, SA 489
Description: as §1

[5] = tested on: Staphylococcus aureus 447; assay: MIC, standard broth micro-dilution assay, SA 447
Description: as §1

[6] = tested on: Staphylococcus aureus X400; assay: MIC, standard broth micro-dilution assay, SA X400
Description: as §1

[7] = tested on: Staphylococcus aureus X778; assay: MIC, standard broth micro-dilution assay, SA X778
Description: as §1

[8] = tested on: Staphylococcus aureus 491; assay: MIC, standard broth micro-dilution assay, SA 491
Description: as §1

[9] = tested on: Staphylococcus aureus S13E
Description: as §1

[10] = tested on: Staphylococcus aureus SA1199; assay: MIC, standard broth micro-dilution assay, SA 1199
Description: as §1

[11] = tested on: Staphylococcus aureus SA1199A; assay: MIC, standard broth micro-dilution assay, SA 1199A
Description: as §1

[12] = tested on: Staphylococcus haemolyticus 105; assay: MIC, standard broth micro-dilution assay, SH 105
Description: as §1

[13] = tested on: Staphylococcus haemolyticus 415; assay: MIC, standard broth micro-dilution assay, SH 415
Description: as §1

[14] = tested on: Staphylococcus epidermidis 270; assay: MIC, standard broth micro-dilution assay, SE 270
Description: as §1

Enterococcus faecium 180 = assay: MIC, standard broth micro-dilution assay, EF 180
Description: as §1

[15] = tested on: Enterococcus faecium 180-1; assay: MIC, standard broth micro-dilution assay, EF 180-1
Description: as §1

[16] = tested on: Enterococcus faecalis 2041; assay: MIC, standard broth micro-dilution assay, EF 2041
Description: as §1

[17] = tested on: Enterococcus faecalis 276; assay: MIC, standard broth micro-dilution assay, EF 276
Description: as §1

[18] = tested on: Enterococcus gallinarum 245; assay: MIC, standard broth micro-dilution assay, EG 245
Description: as §1

[19] = tested on: Haemophilus influenzae RD; assay: MIC, standard broth micro-dilution assay, HFRD
Description: as §1

Escherichia coli EC14 = assay: MIC, standard broth micro-dilution assay, EC 14
Description: as §1

Row | Structure (SMILES) | minimal inhibitory concentration (MIC), Resistant [1] | minimal inhibitory concentration (MIC), Sensitive [2] | minimal inhibitory concentration (MIC), SA 446 [3] | minimal inhibitory concentration (MIC), SA 489 [4] | minimal inhibitory concentration (MIC), SA 447 [5] | minimal inhibitory concentration (MIC), SA X400 [6] | minimal inhibitory concentration (MIC), SA X778 [7] | minimal inhibitory concentration (MIC), SA 491 [8] | minimal inhibitory concentration (MIC), SA S13E [9] | minimal inhibitory concentration (MIC), SA 1199 [10] | minimal inhibitory concentration (MIC), SA 1199A [11] | minimal inhibitory concentration (MIC), SH 105 [12] | minimal inhibitory concentration (MIC), SH 415 [13] | minimal inhibitory concentration (MIC), SE 270 [14] | minimal inhibitory concentration (MIC), EF 180 (Enterococcus faecium 180) | minimal inhibitory concentration (MIC), EF 180-1 [15] | minimal inhibitory concentration (MIC), EF 2041 [16] | minimal inhibitory concentration (MIC), EF 276 [17] | minimal inhibitory concentration (MIC), EG 245 [18] | minimal inhibitory concentration (MIC), HFRD [19] | also measured
1 | CC1OC(OC2c3ccc(c(Cl)c3)Oc3cc4cc(c3OC3OC(CO)C(O)C(O)C3OC3CC(C)(NCc5ccc(-c6ccccc6)cc5)C(O)C(C)O3)Oc3ccc(cc3Cl)C(O)C(NC(=O)C3CCCN3)C(=O)NC(CC(N)=O)C(=O)NC4C(=O)NC3C(=O)NC2C(=O)NC(C(=O)O)c2cc(O)cc(O)c2-c2cc3ccc2O)CC(C)(N)C1O [Example 12, N^1-D-proline derivative of N^DISACC-(p-phenylbenzyl)desleucylA82846B] | 2.8 | 0.19 | 2 | 2 | 0.5 | 1 | 0.25 | 0.5 | 2 | 1 | 0.25 | 0.125 | 0.25 | 0.125 | 1 | ≦.06 | 0.25 | 1 | 0.25 | 32 | minimal inhibitory concentration (MIC), EC 14 (Escherichia coli EC14): >64
2 | CC(C)CC(N)C(=O)NC1C(=O)NC(CC(N)=O)C(=O)NC2C(=O)NC3C(=O)NC(C(=O)NC(C(=O)O)c4cc(O)cc(O)c4-c4cc3ccc4O)C(OC3CC(C)(N)C(O)C(C)O3)c3ccc(c(Cl)c3)Oc3cc2cc(c3OC2OC(CO)C(O)C(O)C2OC2CC(C)(NCc3ccc(-c4ccccc4)cc3)C(O)C(C)O2)Oc2ccc(cc2Cl)C1O [Example 13, N^1-D-leucine derivative of N^DISACC-(p-phenylbenzyl)desleucylA82846B] | 2.4 | 0.095 | 1 | 0.5 | 1 | 0.5 | 1 | 1 | 0.5 | 1 | 0.25 | 1 | 0.5 | 0.25 | 0.25 | ≦.06 | ≦.06 | 0.5 | ≦.06 | 16 | minimal inhibitory concentration (MIC), EC 14 (Escherichia coli EC14): >64
3 | CSCCC(NC(=O)OC(C)(C)C)C(=O)NC1C(=O)NC(CC(N)=O)C(=O)NC2C(=O)NC3C(=O)NC(C(=O)NC(C(=O)O)c4cc(O)cc(O)c4-c4cc3ccc4O)C(OC3CC(C)(N)C(O)C(C)O3)c3ccc(c(Cl)c3)Oc3cc2cc(c3OC2OC(CO)C(O)C(O)C2OC2CC(C)(NCc3ccc(-c4ccccc4)cc3)C(O)C(C)O2)Oc2ccc(cc2Cl)C1O [Example 15, N^1-(N-BOC-D-methionine) derivative of N^DISACC-(p-phenylbenzyl)desleucylA82846B] | 27 | 1.2 | 1 | 1 | 1 | 1 | 0.5 | 1 | 1 | 2 | 0.125 | 1 | 1 | 0.25 | 8 | ≦.06 | 0.25 | 0.5 | 1 | >64 | minimal inhibitory concentration (MIC), EC 14 (Escherichia coli EC14): >64
4 | CC(C)C[C@@H](N)C(=O)N[C@H]1C(=O)N[C@@H](CC(N)=O)C(=O)N[C@H]2C(=O)N[C@H]3C(=O)NC(C(=O)N[C@H](C(=O)O)c4cc(O)cc(O)c4-c4cc3ccc4O)[C@H](OC3CC(C)(N)C(O)C(C)O3)c3ccc(c(Cl)c3)Oc3cc2cc(c3OC2OC(CO)C(O)C(O)C2OC2CC(C)(N)C(O)C(C)O2)Oc2ccc(cc2Cl)[C@H]1O (stereo partly drawn) [Example 17, N^1-D-leucine derivative of desleucylA82846B] | >32 | 0.5 | 0.5 | 0.06 | 0.5 | 0.06 | 0.06 | 0.125 | 0.25 | 0.25 | ≦.06 | 0.5 | 1 | 0.25 | 1 | ≦.06 | ≦.06 | 0.06 | 0.06 | 32 | minimal inhibitory concentration (MIC), EC 14 (Escherichia coli EC14): >64
5 | CC(C)CC(NC(=O)OC(C)(C)C)C(=O)NC1C(=O)NC(CC(N)=O)C(=O)NC2C(=O)NC3C(=O)NC(C(=O)NC(C(=O)O)c4cc(O)cc(O)c4-c4cc3ccc4O)C(OC3CC(C)(N)C(O)C(C)O3)c3ccc(c(Cl)c3)Oc3cc2cc(c3OC2OC(CO)C(O)C(O)C2OC2CC(C)(NCc3ccc(-c4ccccc4)cc3)C(O)C(C)O2)Oc2ccc(cc2Cl)C1O [Example 18, N^1-(N-BOC-D-leucine) derivative of N^DISACC-(p-phenylbenzyl)desleucylA82846B] | 27 | 0.87 | 0.5 | 0.125 | 0.5 | 0.25 | 0.25 | ≦.06 | 0.5 | 0.5 | no growth | 1 | 1 | 0.25 | 2 | 0.5 | ≦.06 | 0.5 | 1 | 16 | minimal inhibitory concentration (MIC), EC 14 (Escherichia coli EC14): >64
6 | CC1OC(OC2c3ccc(c(Cl)c3)Oc3cc4cc(c3OC3OC(CO)C(O)C(O)C3OC3CC(C)(NCc5ccc(-c6ccccc6)cc5)C(O)C(C)O3)Oc3ccc(cc3Cl)C(O)C(NC(=O)C(CCCCNC(=O)OC(C)(C)C)NC(=O)OC(C)(C)C)C(=O)NC(CC(N)=O)C(=O)NC4C(=O)NC3C(=O)NC2C(=O)NC(C(=O)O)c2cc(O)cc(O)c2-c2cc3ccc2O)CC(C)(N)C1O [Example 19, N^1-(N^1N′-DIBOC-D-lysine) derivative of N^DISACC-(p-phenylbenzyl)desleucylA82846B] | 64 | 2.6 | 2 | 1 | 2 | 2 | 2 | 1 | 2 | 2 | no growth | 4 | 4 | 2 | 8 | 1 | 0.5 | 2 | 2 | >64 | minimal inhibitory concentration (MIC), EC 14 (Escherichia coli EC14): >64

Source: patent US6670446B1, “N1 modified glycopeptides” (Eli Lilly and Company, priority 1998, dated 2003)
